Literature values, collected in patent US20220249978A1, “NOVEL SOLVENT FOR EXTRACTING, SOLUBILISING AND/OR FORMULATING VOLATILE AND NON-VOLATILE COMPOUNDS OF INTEREST IN ANIMAL NUTRITION AND HEALTH, PREPARATION METHOD AND USES THEREOF” (ID4TECH, priority 2019, published 2022).

What was measured:
Candida strains = conditions: in vitro and in vivo
[1] = system: Gram+ but also Gram− bacteria such as Staphylococcus, Streptococcus, Gardnerella, Haemophilus but also Listeria monocytogenes
Bacillus anthracis = conditions: blocks its growth without killing the cells
[2] = system: pro-inflammatory cytokines (IL-8 and TNF-α)

CCCCCCCCCCCC(=O)OCC(O)CO (stereo not shown) [glycerol monolaurate]
growth of Candida strains (Candida strains): inhibits the growth
growth of Gram+ and Gram− bacteria [1]: acts against the growth
action against Bacillus anthracis (Bacillus anthracis): bacteriostatic agent
quantity of pro-inflammatory cytokines (IL-8 and TNF-α) [2]: significant decrease
